Reference: patent US20170182080A1, “FUNCTIONAL SCAFFOLD FOR TISSUE REPAIR AND REGENERATION” (priority 2014, published 2017)

Experiments:
[1] = test system: rat adipose derived cells; test: Ki-67 proliferation marker immunohistochemical staining in 3D TG-Gel culture; type: cell-based
Experimental: 10^6/m1 rat adipose derived cells was suspended in the gelatin-transglutaminase crosslinked gel also referred to TG-Gel. Gel concentrations ranged from 3%, 4.5%, 6%, and 7.5%. A cell suspension in 20 μL volume was transferred in each well of 48 well culture plate followed by incubation at 37° C. for 30 min for gelation. 1.0 ml of medium (10%FBS/DMEM) with 5 nM Aza was added in each well and the plate was placed in a 5% CO2 37° C. incubator for 5 day culture. At day 5, cell proliferation marker (Ki-67) immune histochemical staining was performed on 3D culture. Medium without Aza was used as control.
The detection of Ki67, a proliferation marker, was performed using Anti-Ki-67 (Rabbit Monoclonal antibody, Clone SP6, from Thermo Scientific).

[2] = test system: rat adipose derived cells; test: Alkaline phosphatase (ALP) activity, osteogenic differentiation in 3D TG-Gel culture; type: cell-based; settings: day 5
Experimental: (§1) Using the matrix as described above, the medium was changed to regular growth medium at day 5 and maintained for 14 days. Alkaline phosphatase (ALP) activity and staining were performed to characterize early osteogenesis at day 5 and calcium staining at day 14. ALP activity was determined by biochemical assay based on conversion of p-nitrophenyl phosphate to p-nitrophenol (pNPP), which was measured spectrophotometrically at 405 nm absorbance. Briefly, TG-Gel-Cell, a transglutaminase crosslinked gelatin gel and cell mixture, construct was washed twice with PBS and homogenized with buffer solution (0.25% TritonX-100 in PBS). After three freezing-thawing cycles, cells were released from TG-Gel by adding 50 μL of 0.25% trypsin and incubated at 37° C. for 4 hours. ALP activity was then quantified by using p-NPP as a substrate (Pierce, USA). The absorbance was measured by a multiplate reader (Molecular Devices, CA) after 30 minutes of incubation at 37° C. The ALP activity was specified as an arbitrary unit of ALP absorbance that normalized with cell numbers. Alizarin Red S staining as late marker of osteogenic differentiation was performed to determine the degree of calcium deposition as described. […] The supernatant was collected and absorbance was measured by a multiplate reader (Molecular Devices, CA).

[3] = test system: rat adipose derived cells; test: Alizarin Red S calcium deposition, osteogenic differentiation in 3D TG-Gel culture; type: cell-based; settings: day 14
Experimental: as §1, with “CA). […]” for “CA).”

[4] = test system: adipose cell 3D culture; test: Anti-MyoD staining, myogenesis differentiation in adipose cell 3D culture; type: cell-based; settings: w/AZA-CR
Description: A myogenic marker such as MyoD was stained on day 14 adipose cell 3D culture. The anti-MyoD antibody is a monoclonal available from Pierce.

[5] = test system: MSC or adipose cells; test: Anti-N-cadherin staining, cardiomyocyte differentiation; type: cell-based; settings: w/AZA-CR; 4.5% TG-Gel
[6] = test system: Fisher rats; test: Cartilage defect model (osteochondral defect in trochlear groove), histology; type: in vivo, rat; settings: 4.5% Tg-Gel + 50 μL Aza (500 nM) implanted in defect; at 7 days; cell morphology resembles chondrogenic cells
Experimental: (§2) Fisher rats (7-8-weeks old, 200-250 g each) were used in this study. They were randomly enrolled into two experimental groups,A, 4.5% Tg-Gel +50 μL PBS and B, 4.5% Tg-Gel +50 μL Aza (500 nM), 4 animals per group. A 3-mm diameter×2-mm deep osteochondral defect was drilled into the rat trochlear groove, using a dermal biopsy punch (Miltex, Inc.). Implant gel was placed in the defect area. Skin was closed with 4-0 suture. […]
as §2, with “Tg-Gel+50” for “Tg-Gel +50”, “diamete×2-mm” for “diameter×2-mm”

[7] = test system: >8 month old retired rats; test: Cranial defect model, bone growth and healing by histology; type: in vivo, rat; settings: 500 nM Aza in collagen sponge; 5 mm skull defect; no exogenous BMP-2; four weeks
Experimental: Collagen matrix (as described above) was prepared and cut into 5 mm discs. An 5 mm diameter circular opening was created in the skull of >8 month old retired rats using circular drill bit including a lip to restrict the depth of the circular cutting. 500 nM of Aza was applied directly into the collagen sponge before implantation. Control included collagen discs without added Aza-CR but same volume of PBS. After four weeks of implantation, bone growth and healing status were evaluated histologically.

SMILES: Nc1ncn([C@@H]2O[C@H](CO)[C@@H](O)[C@H]2O)c(=O)n1 [AZA-CR, 5-azacytidine]
- Ki67 positive staining, Aza group versus control ([1]; 3%-4.5% gel condition): no difference
- Ki67 positive staining, Aza group versus control ([1]; 6%-7% gel condition, evenly distributed in whole 3D construct): significantly more positive stained cells
- Anti - Ki67, Center ([1]; w/AZA-CR (5 nM Aza in medium), 4.5% TG-Gel, day 5): ~30%
- Anti - Ki67, Center and Peripheral (evenly distributed) ([1]; w/AZA-CR (5 nM Aza in medium), 6% TG-Gel, day 5): Evenly distributed (~80%)
- Anti - Ki67, Center and Peripheral (evenly distributed) ([1]; w/AZA-CR (5 nM Aza in medium), 7.5% TG-Gel, day 5): Evenly distributed (~50%)
- ALP activity ([2]; versus without AZA-CR): enhanced
- TG-Gel concentration at which ALP peaked ([2]; with and without AZA-CR): 6 % TG-Gel
- calcium deposition ([3]; versus without AZA-CR): enhanced
- TG-Gel concentration at which calcium deposition peaked ([3]; with and without AZA-CR): 9 % TG-Gel
- Anti-MyoD on day 14, Center and Peripheral (evenly distributed) ([4]; 4.5% TG-Gel): ~80% Evenly Distributed
- Anti-MyoD on day 14, Center and Peripheral (evenly distributed) ([4]; 6% TG-Gel): ~70% Evenly Distributed
- Anti-N-Cadherin, Center [5]: ~50%
- histology of osteochondral defect site, area adjacent to subchondral bone [6]: neo cell infiltration
- bone remodeling at the bony defect site [7]: significant bone remodeling
